In paper PMC8457121, “From Kinase Inhibitors to Multitarget Ligands as Powerful Drug Leads for Alzheimer's Disease using Protein‐Templated Synthesis” (Angewandte Chemie (International Ed. in English), 2021):

What was measured:
Human recombinant GSK3β = molecular target: T1, Human recombinant GSK3β (Homo sapiens, UniProt P49841); experiment: GSK3β inhibition enzymatic assay (Kinase-Glo); assay type: biochemical
T1 construct: purchased Millipore (Millipore Ibérica SAU)
Description: GSK3β inhibition enzymatic assay. Human recombinant GSK3β and the pre-phosphorylated polypeptide substrate were purchased from Millipore (Millipore Ibérica SAU). Kinase-Glo Luminescent Kinase Assay was obtained from Promega (Promega Biotech Ibérica, SL). ATP and all other reagents were from Sigma Aldrich (St. Louis, MO). Assay buffer contained 50 mM HEPES (pH 7.5), 1 mM EDTA, 1 mM EGTA, and 15 mM magnesium acetate.
Kinase-Glo assays were performed in assay buffer using black 96-well plates. In a typical assay, 10 μL (10 μM) of test compound (dissolved in DMSO) at 1 mM concentration and diluted in advance in assay buffer to the desired concentration) and 10 μL (20 ng) of enzyme were added to each well followed by 20 μL of assay buffer containing 25 μM substrate and 1 μM ATP. The final DMSO concentration […]
After 30 min incubation at 30 °C, the enzymatic reaction was stopped with 40 μL of Kinase-Glo reagent. Glow-type luminescence was recorded after 10 min using a FLUOstar Optima (BMG
Labtechnologies GmbH, Offenburg, Germany) multimode reader. The activity is proportional to the difference of the total and consumed ATP. The inhibitory activities were calculated based on maximal activities measured in the absence of inhibitor. The IC50 was defined as the concentration of each compound that reduces a 50 % the enzymatic activity with respect to that without inhibitors. […]

SK-APP cells [1] = experiment: Aβ40 and Aβ42 levels in SK-APP cells (sandwich ELISA); assay type: cell-based, human; conditions: 10 μM, 48 h treatment
Description: page 35: enzyme concentration (1 U/mL). Inhibitor screening at 10 μM. The mixture was incubated for 60 min at 25 °C under dark conditions and then stopped with 2.5 M sodium acetate. Fluorescence was measured with a FLUOstar Optima (BMG Labtechnologies GmbH, Offenburg, Germany) microplate reader at 545 nm excitation and 585 nm emission. Evaluation of BACE Inhibitors Kinetics. To evaluate the mechanism of BACE1 inhibition of the compounds, substrate-dependent kinetic experiments were performed. BACE activity were measured at five different concentrations substrate (1000 -62,5 μM) in the absence or presence of the select inhibitor at two different concentrations. The results are presented as double reciprocal Lineweaver-Burk plots (1/V vs 1/[S]) Figure S1. Cell culture and treatments. SK-N-MC cells stably expressing the human isoform APP695 (SK-APP cell line […]1) were generated by transfection of SK-N-MC cells with a pCDNA3-APP expression vector, and kindly provided by Dr. MJ Bullido. These cells were cultured in DMEM (Thermo Fisher) medium supplemented with 10% FBS (Thermo Fisher), 1 mM glutamine (Sigma- Aldrich), and 100 unit/ml penicillin (Lonza) and […] streptomycin (Lonza). Cell cultures were maintained in a 5% CO2, humidified atmosphere at 37 °C. SH-SY5Y cells were obtained from the American Type Culture Collection and grown in DMEM media (Gibco), supplemented with 10% foetal bovine serum, and 1% penicillin/streptomycin (Invitrogen). The cells were grown at 37 °C in a humidified 5% CO2 atmosphere. For the treatments, all the compounds were dissolved in dimethyl sulfoxide (DMSO, from Sigma) at an initial stock concentration of 10 mM. […] working solutions were obtained from the dilution of the stock solutions in DMEM media (DMSO control solutions were prepared similarly to the compounds). Okadaic acid (OA, Sigma-Aldrich) was dissolved in DMSO at an initial stock concentration of 60 μM and a 250X working solution was obtained from the dilution of the stock solution in DMEM. All the compounds (250x solutions) were added directly into the wells at the indicated final concentrations for 1 hour before the treatment with OA at a final concentration of 30 nM. DMSO was added at the appropriate concentration to the 34 page 36: control-untreated cells. The cells were maintained in the presence of the OA and the different compounds for 24h. Measurement of cell viability. Cell viability assays were carried out using a 3- […] (Sigma-Aldrich) in 96-well cell culture plates. All cells were then incubated with a 0.5 mg/ml MTT solution (Sigma-Aldrich) at 37 °C for 4 h and then with cell lysis […] The absorbance values were determined at 590 nm. Cell viability was expressed as a percent of OD of control cells, the value of which was defined as 100%. Cell viability in SH-SY5Y were carried out following the same procedure but seeding the cells in 24 well multiplates. Absorbance was measured using a Varioskan Flash multiplate reader (Thermo Scientific) at test 550 nm and reference 664 nm wave-lengths. Compound concentration for SK-APP line was 10 μM and for the SH-SY5Y was 1 and 5 μM. Immunoassays. Levels of Aβ40 and Aβ42 were quantified by sandwich ELISAs (Wako, Osaka, Japan) from cellular lysates and conditioned media collected. CNS penetration: in vitro PAMPA-BBB test. Prediction of the brain penetration was evaluated using a parallel artificial membrane permeability assay (PAMPA).1 Nine quality control compounds (mentioned below) of know BBB permeability were included in each experiment to validate the analysis set.2 Commercial drugs […] dissolved in 250 μL of DMSO (Sigma-Aldrich). 25 μL of these compound stock solutions were taken and 225 μL of DMSO and 4750 μL of PBS pH 7.4 buffer were added to reach 5% of DMSO concentration in the experiment and a final […] Compounds to be determined their ability to pass the brain barrier (0.5-1 mg) were dissolved in 250 μL of DMSO and 4750 μL of PBS pH 7.4 was carefully added to afford a final […]

PAMPA-BBB test = assay type: in vitro ADME; conditions: for Papp at 2.5 h: read-out: Pe exp; for Solubility in the conditions of the PAMPA experiment: PBS pH 7.4 with 5% DMSO
Description: dissolved in 250 µL of DMSO (Sigma-Aldrich). 25 µL of these compound stock
solutions were taken and 225 µL of DMSO and 4750 µL of PBS pH 7.4 buffer
compound concentration in the range of 0.2 to 1.1 mM. Compounds to be
µL of DMSO and 4750 µL of PBS pH 7.4 was carefully added to afford a final
compound concentration in the range of 0.2 to 1.1 mM. Solutions were filtered
using filter PDVF membrane units (diameter 30 mm, pore size 0.45 μm, Symta).
10 µL of each solution were taken and diluted 10-fold with PBS/DMSO (95/5) for
HPLC-MS analysis. The acceptor 96-well plate (Multiscreen®, catalog no.
MAMCS9610, Millipore) was filled with 180 µL of PBS/DMSO (95/5). The donor
96-well plate (Multiscreen® IP Sterile Plate PDVF membrane, pore size is 0.45
M, catalog no. MAIPS4510, Millipore) was coated with 4 µL 20 mg·mL-1 of
for 5 min and then 180 µL of each compound solution was added. Then the donor
plate was put on the acceptor plate and kept for 2.5 h at room temperature. After
incubation, samples were collected from the acceptor plate and diluted 10-fold
with PBS/DMSO (95/5) for HPLC-MS analysis and compared to HPLC-MS of
initial solutions. Absorbance peak of each compound was determined by MS
detection and was used to calculate the concentration of compounds and
Every sample was analysed in two independent
runs. HPLC-MS was performed using a HPLC-MS equipment from Thermo
Fisher coupled to a Finnigan TM LXQ TM detector. Each compound was
analysed using a Sunfire column C18, 3.5 μm (50 mm x 4.6 mm) and acetonitrile
and Milli-Q water (with 0.1% formic acid) as mobile phase. The standard gradient

CK1δ = CK1δ (Homo sapiens, UniProt P48730); experiment: CK1δ inhibition enzymatic assay (Kinase-Glo); assay type: biochemical; conditions: for inhibition at 10 µM: read-out: CK1δ enzyme inhibition at 10 μM
Description: CK1δ inhibition enzymatic assay. The “Kinase-Glo” Kit from Promega was used to screen compounds for activity against CK1δ Kinase-Glo assays were performed in assay buffer using black 96-well plates. In a typical assay, 10 μl of test compound (dissolved in DMSO at 1 mM concentration and diluted in advance in assay buffer to the desired concentration) 10 μl (16 ng) of enzyme were added to each well followed by 20 µl of assay buffer containing 0,1 % casein as substrate […]
exceed 1%. After 60-min incubation at 30°C the enzymatic reaction was stopped […]
with 40 μl of Kinase-Glo reagent. Glow-type luminescence was recorded after 10 min using a FLUOstar Optima (BMG Labtechnologies GmbH, Offenburg, Germany) multimode reader. The activity is proportional to the difference of the total and consumed ATP. The inhibitory activities were calculated on the basis of maximal activities measured in the absence of inhibitor. The IC50 was defined as the concentration of each compound that reduces a 50% the enzymatic activity with respect to that without inhibitors. […]
Ibérica SAU). Kinase-Glo Luminescent Kinase Assay was obtained from Promega (Promega Biotech Ibérica, SL). ATP and all other reagents were from Sigma Aldrich (St. Louis, MO). Assay buffer contained 50 mM HEPES (pH 7.5), 1 mM EDTA, 1 mM EGTA, and 15 mM magnesium acetate. […]

BACE1 = BACE1 (Homo sapiens, UniProt P56817); experiment: BACE1 enzymatic assay (FRET); assay type: biochemical; conditions: for inhibition at 10 µM: read-out: BACE1 enzyme inhibition at 10 μM
Description: BACE1 enzymatic assay. BACE1 in vitro assays were carried out using FRET.
μM) carrying the Swedish mutation and containing a rhodamine as a fluorescence donor and a quencher acceptor at each end was used. The intact substrate is weakly fluorescent and becomes highly fluorescent upon enzymatic cleavage.
The assays were conducted in 50 mM sodium acetate buffer, pH 4.5, in a final

SH-SY5Y cells = experiment: Okadaic acid-induced cell death model, viability of SH-SY5Y cells; assay type: cell-based, human; conditions: OA 30 nM, 24 h, compound 1 and 5 µM
Description: (§1) page 35: enzyme concentration (1 U/mL). Inhibitor screening at 10 μM. The mixture was incubated for 60 min at 25 °C under dark conditions and then stopped with 2.5 M sodium acetate. Fluorescence was measured with a FLUOstar Optima (BMG Labtechnologies GmbH, Offenburg, Germany) microplate reader at 545 nm excitation and 585 nm emission. Evaluation of BACE Inhibitors Kinetics. To evaluate the mechanism of BACE1 inhibition of the compounds, substrate-dependent kinetic experiments were performed. BACE activity were measured at five different concentrations substrate (1000 -62,5 μM) in the absence or presence of the select inhibitor at two different concentrations. The results are presented as double reciprocal Lineweaver-Burk plots (1/V vs 1/[S]) Figure S1. Cell culture and treatments. […] The absorbance values were determined at 590 nm. Cell viability was expressed as a percent of OD of control cells, the value of which was defined as 100%. […] Absorbance was measured using a Varioskan Flash multiplate reader (Thermo Scientific) at test 550 nm and reference 664 nm wave-lengths. […] Levels of Aβ40 and Aβ42 were quantified by sandwich ELISAs (Wako, Osaka, Japan) from cellular lysates and conditioned media collected. […] Compounds to be determined their ability to pass the brain barrier (0.5-1 mg) were dissolved in 250 μL of DMSO and 4750 μL of PBS pH 7.4 was carefully added to afford a final […]

LRRK2 = molecular target: T2, LRRK2 (Homo sapiens, UniProt Q5S007); experiment: LRRK2 inhibition enzymatic assay (Adapta, ThermoFisher); assay type: biochemical; conditions: for inhibition at 10 µM: read-out: LRRK2 enzyme inhibition at 10 μM
T2 construct: purchased ThermoFisher (assay run by the company)

SK-APP cells [2] = experiment: Cell viability (MTT) in SK-APP cells; assay type: cell-based, human; conditions: 10 μM, 48 hours
Description: as §1

[3] = PAMPA-BBB, PBS pH 7.4/DMSO 95/5, 2.5 h, room temperature

T2 sequence (Q5S007 whole entry): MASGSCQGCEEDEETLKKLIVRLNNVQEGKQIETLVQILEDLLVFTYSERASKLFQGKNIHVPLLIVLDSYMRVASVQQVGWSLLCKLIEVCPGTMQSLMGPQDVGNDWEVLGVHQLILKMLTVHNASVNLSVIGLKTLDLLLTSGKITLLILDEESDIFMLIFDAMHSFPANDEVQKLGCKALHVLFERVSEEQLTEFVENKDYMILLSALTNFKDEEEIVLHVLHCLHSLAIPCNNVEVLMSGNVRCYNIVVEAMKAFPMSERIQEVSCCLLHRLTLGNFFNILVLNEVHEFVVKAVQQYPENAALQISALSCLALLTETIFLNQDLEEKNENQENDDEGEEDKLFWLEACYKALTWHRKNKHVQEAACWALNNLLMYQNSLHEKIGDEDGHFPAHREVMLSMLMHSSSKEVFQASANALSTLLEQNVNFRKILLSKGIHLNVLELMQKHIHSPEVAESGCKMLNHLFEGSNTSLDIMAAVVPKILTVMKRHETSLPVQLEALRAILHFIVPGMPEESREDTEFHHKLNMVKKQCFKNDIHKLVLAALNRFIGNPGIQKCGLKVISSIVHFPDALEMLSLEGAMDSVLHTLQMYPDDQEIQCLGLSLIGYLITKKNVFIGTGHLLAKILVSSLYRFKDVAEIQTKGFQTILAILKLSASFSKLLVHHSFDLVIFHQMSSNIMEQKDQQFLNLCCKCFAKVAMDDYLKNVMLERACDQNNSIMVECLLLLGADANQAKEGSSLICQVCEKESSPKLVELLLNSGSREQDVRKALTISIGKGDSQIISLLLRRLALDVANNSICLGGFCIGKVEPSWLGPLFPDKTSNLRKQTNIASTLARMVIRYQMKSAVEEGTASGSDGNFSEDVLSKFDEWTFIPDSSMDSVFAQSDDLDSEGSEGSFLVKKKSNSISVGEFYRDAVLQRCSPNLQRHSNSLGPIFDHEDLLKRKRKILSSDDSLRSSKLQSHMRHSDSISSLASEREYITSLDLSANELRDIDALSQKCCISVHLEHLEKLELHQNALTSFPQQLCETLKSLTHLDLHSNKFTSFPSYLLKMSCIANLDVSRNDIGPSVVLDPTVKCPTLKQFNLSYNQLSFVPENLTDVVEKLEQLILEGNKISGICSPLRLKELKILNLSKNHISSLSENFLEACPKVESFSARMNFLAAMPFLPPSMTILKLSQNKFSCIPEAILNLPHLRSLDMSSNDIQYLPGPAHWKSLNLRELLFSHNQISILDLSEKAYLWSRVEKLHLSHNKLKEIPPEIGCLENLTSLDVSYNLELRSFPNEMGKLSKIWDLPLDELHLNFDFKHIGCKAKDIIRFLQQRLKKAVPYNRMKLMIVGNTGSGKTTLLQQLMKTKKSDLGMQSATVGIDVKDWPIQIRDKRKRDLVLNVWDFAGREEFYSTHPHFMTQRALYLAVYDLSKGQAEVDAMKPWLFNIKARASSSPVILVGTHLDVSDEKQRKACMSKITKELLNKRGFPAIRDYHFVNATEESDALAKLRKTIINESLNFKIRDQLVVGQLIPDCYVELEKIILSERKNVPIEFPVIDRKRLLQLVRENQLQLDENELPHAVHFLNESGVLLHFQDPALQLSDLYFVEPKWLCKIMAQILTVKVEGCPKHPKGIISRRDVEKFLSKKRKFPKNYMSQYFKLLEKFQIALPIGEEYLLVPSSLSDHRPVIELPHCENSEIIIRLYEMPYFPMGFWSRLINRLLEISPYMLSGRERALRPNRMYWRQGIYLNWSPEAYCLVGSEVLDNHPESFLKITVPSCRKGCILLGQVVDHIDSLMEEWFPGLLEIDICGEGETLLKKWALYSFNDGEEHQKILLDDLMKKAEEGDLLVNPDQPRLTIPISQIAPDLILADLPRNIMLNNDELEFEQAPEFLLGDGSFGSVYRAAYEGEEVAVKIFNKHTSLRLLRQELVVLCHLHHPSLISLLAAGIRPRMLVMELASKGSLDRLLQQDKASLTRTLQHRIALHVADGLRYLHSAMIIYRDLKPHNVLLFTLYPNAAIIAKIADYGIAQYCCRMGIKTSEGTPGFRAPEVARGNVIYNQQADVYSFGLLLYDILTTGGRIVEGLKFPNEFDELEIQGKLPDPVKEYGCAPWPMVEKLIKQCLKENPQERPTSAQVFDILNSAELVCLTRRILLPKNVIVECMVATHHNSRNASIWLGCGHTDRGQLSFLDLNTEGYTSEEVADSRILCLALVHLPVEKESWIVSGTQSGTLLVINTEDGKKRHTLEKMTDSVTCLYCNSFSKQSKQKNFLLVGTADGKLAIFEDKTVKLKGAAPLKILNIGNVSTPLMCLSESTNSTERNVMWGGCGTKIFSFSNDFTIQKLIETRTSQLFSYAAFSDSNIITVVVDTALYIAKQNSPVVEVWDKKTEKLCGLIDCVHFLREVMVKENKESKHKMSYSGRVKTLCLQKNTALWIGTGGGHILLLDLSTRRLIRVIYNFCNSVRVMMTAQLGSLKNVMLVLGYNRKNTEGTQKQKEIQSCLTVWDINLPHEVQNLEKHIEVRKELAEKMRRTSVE
Chain of CK1δ (P48730 whole entry): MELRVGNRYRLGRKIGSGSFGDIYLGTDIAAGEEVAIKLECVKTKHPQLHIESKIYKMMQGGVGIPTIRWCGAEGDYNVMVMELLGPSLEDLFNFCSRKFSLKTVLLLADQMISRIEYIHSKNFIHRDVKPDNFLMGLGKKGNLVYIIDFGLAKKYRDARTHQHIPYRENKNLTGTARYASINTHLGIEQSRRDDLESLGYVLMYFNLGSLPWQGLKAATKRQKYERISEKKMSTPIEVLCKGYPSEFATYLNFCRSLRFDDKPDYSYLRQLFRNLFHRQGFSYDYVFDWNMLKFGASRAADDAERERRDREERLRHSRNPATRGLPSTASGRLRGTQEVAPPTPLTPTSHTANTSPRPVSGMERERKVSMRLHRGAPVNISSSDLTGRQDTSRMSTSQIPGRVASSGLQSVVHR
Chain of BACE1 (P56817 46-501): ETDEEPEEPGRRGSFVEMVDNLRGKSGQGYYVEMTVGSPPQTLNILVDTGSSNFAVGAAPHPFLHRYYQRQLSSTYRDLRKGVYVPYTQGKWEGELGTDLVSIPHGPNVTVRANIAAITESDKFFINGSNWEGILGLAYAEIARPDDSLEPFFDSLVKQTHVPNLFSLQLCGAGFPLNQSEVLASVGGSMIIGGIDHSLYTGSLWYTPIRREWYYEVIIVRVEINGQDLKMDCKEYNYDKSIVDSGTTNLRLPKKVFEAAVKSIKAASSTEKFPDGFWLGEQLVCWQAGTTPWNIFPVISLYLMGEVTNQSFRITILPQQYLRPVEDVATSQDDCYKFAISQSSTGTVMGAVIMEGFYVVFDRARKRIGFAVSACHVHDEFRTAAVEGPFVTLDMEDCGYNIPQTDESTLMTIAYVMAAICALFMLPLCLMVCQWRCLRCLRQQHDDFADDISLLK
T1 sequence (P49841 whole entry): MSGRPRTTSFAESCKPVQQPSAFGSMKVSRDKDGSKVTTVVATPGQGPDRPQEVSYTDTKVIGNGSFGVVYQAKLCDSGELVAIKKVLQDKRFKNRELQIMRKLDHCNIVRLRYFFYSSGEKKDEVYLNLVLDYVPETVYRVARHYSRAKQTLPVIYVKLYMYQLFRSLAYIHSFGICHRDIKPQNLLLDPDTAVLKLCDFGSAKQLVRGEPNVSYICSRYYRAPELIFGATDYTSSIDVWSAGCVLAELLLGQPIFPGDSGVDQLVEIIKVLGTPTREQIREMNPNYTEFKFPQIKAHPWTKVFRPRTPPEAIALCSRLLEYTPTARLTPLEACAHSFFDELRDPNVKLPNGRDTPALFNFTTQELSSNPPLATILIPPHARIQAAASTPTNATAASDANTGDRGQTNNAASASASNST

Row | Papp at 2.5 h (PAMPA-BBB test; [3]) [×10⁻⁶ cm/s] | IC50 (CK1δ) [µM] | inhibition at 10 µM (BACE1) [%] | IC50 (LRRK2) [µM] | IC50 (BACE1) [µM] | Structure (SMILES) | CNS prediction (PAMPA-BBB test; PAMPA-BBB) | further results
1 | 5.08 ± 0.63 | 1.25 ± 0.21 | 30 |  |  | CCn1sc(=O)n(Cc2cn(Cc3ccc(CC(=O)Nc4nc5ccccc5s4)cc3)nn2)c1=O [compound 15] | CNS+ (CNS+ (green) for compounds with Pe >3.20×10^−6 cm s^−1) | IC50 (Human recombinant GSK3β): 3.85 ± 0.32 µM; Aβ40 levels in cellular lysates (SK-APP cells [1]): decrease; Aβ40 levels in extracellular fluid (SK-APP cells [1]): decrease; Aβ42 levels in cellular lysates (intracellular) (SK-APP cells [1]): unchanged; Aβ42 levels in extracellular fluid (SK-APP cells [1]): significant decrease; Neuroprotection against okadaic acid (OA) toxicity (SH-SY5Y cells): rescue from the toxic effect of OA
2 | 3.07 ± 0.25 | 6.47 ± 0.68 |  | 13.5 ± 5.23 | 7.24 ± 0.38 | O=C(Cc1ccc(Cn2cc(COc3ccc(/N=C4\C(=O)Nc5ccccc54)cc3)nn2)cc1)Nc1nc2ccccc2s1 [compound 16] | CNS+/CNS- (CNS+/CNS‐ (yellow) for compounds with Pe between both values) | Cell viability of SK-APP cells (SK-APP cells [2]): significant decrease
3 |  |  |  | 7.09 ± 2.22 | 2.51 ± 0.43 | O=C(Cc1ccc(Cn2cc(COc3ccc(C(=O)Nc4nc5ccccc5s4)cc3)nn2)cc1)Nc1nc2ccccc2s1 [compound 17] |  | Solubility in the conditions of the PAMPA experiment (PAMPA-BBB test): insoluble; inhibition at 10 µM (CK1δ): 26%; Cell viability of SK-APP cells (SK-APP cells [2]): significant decrease
4 | 0.65 ± 0.18 | 0.4 ± 0.06 |  | 0.71 ± 0.26 | 7.21 ± 0.35 | O=C(Cc1ccc(OCc2cn(Cc3ccc(C(=O)Nc4nc5ccccc5s4)cc3)nn2)cc1)Nc1nc2ccc(C(F)(F)F)cc2s1 [compound 28] | CNS- (CNS‐ (red) for compounds with Pe <1.88×10^−6 cm s^−1) | 
5 |  | 12.6 ± 0.7 |  | 0.44 ± 0.1 | 11 ± 1.36 | COc1ccc2nc(NC(=O)Cc3ccc(OCc4cn(CCc5ccc(C(=O)Nc6nc7ccccc7s6)cc5)nn4)cc3)sc2c1 [compound 29] | CNS- (CNS‐ (red) for compounds with Pe <1.88×10^−6 cm s^−1) | Pe exp (PAMPA-BBB test; [3]): 0 10-6 cm s-1
6 | 3.58 ± 0.12 |  |  | 3.19 ± 1.01 | 8.57 ± 0.45 | O=C(Cc1ccc(OCc2cn(CCc3ccc(C(=O)Nc4nc5ccccc5s4)cc3)nn2)cc1)Nc1nc2ccccc2s1 [compound 30] | CNS+ (CNS+ (green) for compounds with Pe >3.20×10^−6 cm s^−1) | melting point: 239 to 240 °C; inhibition at 10 µM (CK1δ): 30%
7 |  | 5.4 ± 0.91 |  |  | 6.76 ± 0.61 | CCOC(=O)c1sc(NC(=O)Cc2ccc(OCc3cn(Cc4ccc(CC(=O)Nc5nc6ccccc6s5)cc4)nn3)cc2)nc1C [compound 31] |  | inhibition at 10 µM (Human recombinant GSK3β; read-out: GSK3β enzyme inhibition at 10 μM): 26%; Solubility in the conditions of the PAMPA experiment (PAMPA-BBB test): insoluble
8 |  |  | < 20 |  |  | O=C1Nc2ccccc2/C1=N/c1ccc(OCc2cn(Cc3ccc(C(=O)Nc4nc5ccccc5s4)cc3)nn2)cc1 [compound 32] |  | inhibition at 10 µM (LRRK2): 54%
9 |  |  | < 20 |  |  | O=C(Nc1nc2ccccc2s1)c1ccc(CCn2cc(COc3ccc(C(=O)Nc4nc5ccccc5s4)cc3)nn2)cc1 [compound 33] |  | inhibition at 10 µM (LRRK2): 98%
